{"source": "patent US6342484B1", "about": "“Method and compositions for promotion of wound treatment” (Board of Regents, The University of Texas Systems, priority 1993, dated 2002)", "key": {"[1]": {"tested_on": "4mm punch wound in Balb/c mice", "experiment": "Topical applications on 4 mm punch wounds, visual contraction of wounds (Example 5)", "assay_type": "in vivo, mouse", "conditions": "for Relative efficacy (wound contraction): topical agent on wound, uracil 100 μM, two weeks", "experimental": "Balb/c mice were divided into three dietary groups (F=normal mouse chow; NF=nucleotide free mouse chow; and NFR=nucleotide free mouse chow supplemented with yeast RNA). Each group was fed before initiation of wounds. After 4 weeks of feeding, a 4mm punch wound was created on the dorsal surface of each mouse, using a 4mm biopsy punch. The wounds were coated with four different topical agents: 1) saline; 2) uracil {100 μM concentration); 3) saline+CCM; and 4) Uracil+CCM (CCM=crosslinked collagen mesh). CCM is ‘Collagen Permeable Membrane’ from Accurate Chemical & Scientific Corporation, catalog no. YIC 152299. Four mm size circles were soaked with appropriate nucleotide or saline solution (4mm punch wounds) and used to dress the wounds.\nTwelve groups were formed from these combinations (n=3). Mice were continued on their respective diets. Wounds were observed visually and photographed at four different times during the experimental period of two weeks.\nA record was made of the progressive contraction of the wounds and area among the various dietary and treatment groups."}, "[2]": {"tested_on": "wound cylinder of PTFE in Balb/C mice", "experiment": "Wound hydroxyproline content in PTFE wound cylinder, adenine/uracil/RNA diets (Example 2, FIG. 1)", "assay_type": "in vivo, mouse", "conditions": "for amount of OHP/cm PTFE over both the nucleotide free and the non-supplemented diets: diet at least 30 days before implantation, tenth post-operative day", "text": "Twenty-five Balb/C mice were divided into five test groups (n=5) and housed in groups in the animal care facilities. Each group received one of the following diets ad libertum: F—normal mouse chow, NF—nucleotide free diet, NFR—yeast RNA supplemented diet, NFA—adenine supplemented diet, and NFU—uracil supplemented diet. All groups received these diets for at least 30 days prior to wound cylinder implantation. All animals received water ad libitum.\nPolytetrafluorethylene (PTFE, Impra Vascular Graft, 3 mm lumen, […]) wound cylinders (1.5 cm long) were placed subcutaneously in the dorsal midline of each animal under general anesthesia (Methoxyflurane, inhalation). All animals were continued on their test diets. On the tenth post-operative day, all animals were euthanized by cervical dislocation and the would cylinders were removed for analysis.\nWound cylinders were analyzed for hydroxyproline (OHP) content using the method of Woessner. Briefly, approximately 1 cm segments of the wound cylinders were hydrolyzed in 0.5 ml 6 N HCl for 3 hours at 130 C. Samples were cooled and 0.5 ml aliquots were neutralized with the appropriate volume of 1 N NaOH. Each sample was diluted to 5.25 ml with H2O in order to reduce the total NaCl concentration to below 0.4 M. Each sample was then reacted as described by Woessner."}}}
{"compound": "O=c1cc[nH]c(=O)[nH]1", "note": "[uracil]", "values": [{"measurement": "Relative efficacy (wound contraction)", "setting": "[1]; Diet F (normal mouse chow)", "result": "moderate"}, {"measurement": "Relative efficacy (wound contraction)", "setting": "[1]; Diet NF (nucleotide free chow)", "result": "minimal"}, {"measurement": "Relative efficacy (wound contraction)", "setting": "[1]; Diet NFR (yeast RNA supplemented)", "result": "moderate"}, {"measurement": "amount of OHP/cm PTFE over both the nucleotide free and the non-supplemented diets", "setting": "[2]", "result": "increased"}]}
{"compound": "Nc1ncnc2nc[nH]c12", "note": "[Adenine, adenine]", "values": [{"measurement": "fold increase of the amount of OHP in the wound", "setting": "[2]", "result": "close to two times"}, {"measurement": "significance of OHP increase over the non-supplemented diet", "setting": "[2]", "result": "statistically significant"}, {"measurement": "significance of OHP increase over the nucleotide free diet", "setting": "[2]", "result": "significant"}, {"measurement": "amount of OHP/cm PTFE over both the nucleotide free and the non-supplemented diets", "setting": "[2]", "result": "increased"}]}
{"compound": "OC[C@H]1O[C@@H](n2cnc3c(O)ncnc32)[C@H](O)[C@@H]1O", "note": "[inosine]", "values": [{"measurement": "results compared with uracil as topical agent", "setting": "[1]; 100 μM as topical agent in place of uracil", "result": "no significant differences"}]}
